Experimental data taken from article PMC6934184, “Selective DNA-PKcs inhibition extends the therapeutic index of localized radiotherapy and chemotherapy” (The Journal of Clinical Investigation, 2019).

Target: T1, CDK9/cyclin K (Homo sapiens, UniProt P50750)
T1 construct: purchased Thermo Fisher Scientific (Life Technologies) SelectScreen
Test: SelectScreen LanthaScreen
Format: binding
Settings: read-out: % displacement
Summary of the method: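 SelectScreen broad panel; activity (Z'LYTE, Adapta) plus binding formats. ATP: Km app for CSF1R Z'LYTE; 10 for CAMK1 Adapta. Readout = % per kinase.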

T1 sequence (P50750 whole entry): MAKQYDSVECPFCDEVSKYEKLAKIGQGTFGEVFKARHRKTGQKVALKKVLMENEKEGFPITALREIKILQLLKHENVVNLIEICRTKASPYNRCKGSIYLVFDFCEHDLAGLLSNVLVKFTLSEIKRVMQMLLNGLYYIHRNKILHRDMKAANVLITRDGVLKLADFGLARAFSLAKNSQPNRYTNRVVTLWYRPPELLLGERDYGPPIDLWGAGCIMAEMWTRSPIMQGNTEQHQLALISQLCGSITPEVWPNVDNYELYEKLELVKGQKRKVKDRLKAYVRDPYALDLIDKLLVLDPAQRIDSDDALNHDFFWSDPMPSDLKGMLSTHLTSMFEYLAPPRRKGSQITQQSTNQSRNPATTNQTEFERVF
T1 sequence (O75909 whole entry partner): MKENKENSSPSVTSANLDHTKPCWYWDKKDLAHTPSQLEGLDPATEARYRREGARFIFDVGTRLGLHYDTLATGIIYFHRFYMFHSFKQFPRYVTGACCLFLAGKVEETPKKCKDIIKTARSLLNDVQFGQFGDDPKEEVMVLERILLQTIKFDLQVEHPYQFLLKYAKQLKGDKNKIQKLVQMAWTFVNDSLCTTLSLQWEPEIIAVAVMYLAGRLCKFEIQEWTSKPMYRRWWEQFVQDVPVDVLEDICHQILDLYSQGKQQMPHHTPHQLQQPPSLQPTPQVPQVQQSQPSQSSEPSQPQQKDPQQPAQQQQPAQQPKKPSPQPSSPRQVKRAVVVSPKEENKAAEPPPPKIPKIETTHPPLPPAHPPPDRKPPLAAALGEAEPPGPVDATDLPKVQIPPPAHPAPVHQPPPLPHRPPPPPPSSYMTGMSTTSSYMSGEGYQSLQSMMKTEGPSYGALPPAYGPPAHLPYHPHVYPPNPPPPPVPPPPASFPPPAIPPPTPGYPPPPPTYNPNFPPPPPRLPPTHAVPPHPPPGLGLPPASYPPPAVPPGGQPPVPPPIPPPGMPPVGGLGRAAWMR

## CN(C(=O)CN1CCOCC1)c1ccc2sc3c(-c4cccc5c(=O)cc(N6CC7CCC(C6)O7)oc45)cccc3c2c1 [NU5455]
  inhibition at 1 µM: 1%
